{"source": "patent US20200397764A1", "about": "“VAP-1 INHIBITORS FOR TREATING PAIN” (BENEVOLENTAI CAMBRIDGE LIMITED, priority 2015, published 2020)", "key": {"[1]": {"tested_on": "CFA induced hypersensitivity", "experiment": "CFA induced hypersensitivity in rat, weight bearing (incapacitance tester)", "format": "in vivo", "settings": "for inhibition of the hypersensitivity response (weight bearing) / reversal of CFA induced hypersensitivity (weight bearing): rat", "procedure": "(§1) Assessment of the anti-hyperalgesic properties of (3S)-tetrahydrofuran-3-yl (4S)-4-isopropyl-1,4,6,7-tetrahydro-5H-imidazo[4,5-c]pyridine-5-carboxylate mesylate salt was determined through measurement of weight bearing following CFA induced hypersensitivity. Naive rats distribute their body weight equally between the two hind paws. However, when the injected (left) hind paw is painful, the weight is re-distributed so that less weight is put on the affected paw (decrease in weight bearing on injured paw). Weight bearing through each hind limb was measured using a rat incapacitance tester (Linton Instruments, UK). Rats were placed in the incapacitance tester with the hind paws on separate sensors and the average force exerted by both hind limbs was recorded over 4 seconds. The injection of CFA also induces an oedema that can be assessed by paw volume; this is measured using a plethysmometer. The rat's hind paw is placed into the cylinder containing a solution and the volume of displaced liquid determines the paw volume.\nNaive male, Sprague Dawley rats were acclimatised with food and water available ad libitum. Habituation to the incapacitance tester was performed. Baseline weight bearing and paw volume recordings were taken prior to induction of insult. Inflammatory hypersensitivity was induced by intraplantar injection of CFA (100μl of 1 mg/ml solution) into the left hind paw. A pre-treatment weight bearing and paw volume measurement was taken to assess hypersensitivity 23 hours post-CFA. Animals were then ranked and randomised according to CFA window in a Latin square design. […] (dosed in water at 2 mL/Kg, pH ˜5-6), alongside vehicle and reference group (indomethacin), n=9-10 per group. Weight bearing was assessed in all groups 1, 2 and 4 hours post compound administration. Paw volume was assessed 4 hours post compound administration. Data was analysed by comparing treatment groups to control group at each time point. Weight bearing (g) readings were taken for both right and left hind paws and the difference calculated. Data is expressed as % reversal of the hypersensitivity to pain, (post dose reading—pre dose reading)/(naïve reading—pre dose reading)×100, where naive weight bearing difference—pre dose weight bearing difference is defined as the CFA window to be reversed Statistical analysis was conducted by means of repeated measures ANOVA followed by Planned comparison test using InVivoStat (invivostat.co.uk), (p<0.05 considered significant).\nas §1, with “of (S)-Carbidopa” for “of (3S)-tetrahydrofuran-3-yl (4S)-4-isopropyl-1,4,6,7-tetrahydro-5H-imidazo[4,5-c]pyridine-5-carboxylate mesylate salt”, “the Incapacitance” for “the incapacitance”\nNaive male, Sprague Dawley rats were acclimatised with food and water available ad libitum. Habituation to the incapacitance tester was performed. Baseline weight bearing and paw volume recordings were taken prior to induction of insult. Inflammatory hypersensitivity was induced by intraplantar injection of CFA (100 μl of 1 mg/ml solution) into the left hind paw."}, "[2]": {"tested_on": "CFA induced oedema", "experiment": "CFA induced oedema in rat, paw volume (plethysmometer)", "format": "in vivo", "procedure": "as §1, with “The rat's hind paw is placed into the cylinder containing a solution and the volume of displaced liquid determines the paw volume.” left out\nNaive male, Sprague Dawley rats were acclimatised with food and water available ad libitum. […] Weight bearing was assessed in all groups 1, 2 and 4 hours post compound administration. […] Data was analysed by comparing treatment groups to control group at each time point. Weight bearing (g) readings were taken for both right and left hind paws and the difference calculated. […]\nData Is expressed as % reversal of the hypersensitivity to pain. Paw Volume (mL) readings were taken for the left hind paws. […]"}, "[3]": {"tested_on": "CCI induced neuropathic pain", "experiment": "Chronic Constriction Injury (CCI) model of neuropathic pain, mechanical allodynia (von-Frey)", "format": "in vivo, rat", "description": "The Chronic Constriction Injury (CCI) model of neuropathic pain involves unilateral loose ligation of four ligatures around the left sciatic nerve at mid-thigh level spaced 1 mm apart. This procedure results in the development of hyperalgesia, allodynia and spontaneous pain (ectopic discharges) which can be measured using mechanical and thermal behavioural assessments. As such, this model is believed to mimic some of the symptoms and aetiology of neuropathic pain observed in the clInic (Bennett G J and Xie Y K., 1988; Field et al., 1999).\nNaive male Sprague Dawley rats weighing 200-250 g were acclimatised to the procedure room in their home cages, with food and water available ad libitum. All animals underwent behavioural testing of mechanical allodynia prior to surgery in order to determine the baseline withdrawal thresholds. The average of the last two (out of three) baseline paw-withdrawal thresholds to stimulation with von-Frey hairs was taken as the baseline.\nUnder Isoflurane anaesthesia mixed with oxygen […] the left hind leg was shaved mid-thigh level and an incision made through the skin using a scalpel. The biceps femoris muscle layer was dissected by making an initial incision using a pair of sharp scissors, which was then widened using a pair of blunt scissors. The common sciatic nerve was exposed using a pair of forceps and 4 loose ligatures of chromic gut (SMI) were tied around the sciatic nerve with 1 mm spacing between each. The nerve was then returned below the muscle layer and the wound closed using absorbable sutures (Vicryl).\nBehavioural testing started 19 days post-surgery with mechanical readings taken on day 19, and day 22. […]\nOn day 23, animals were treated orally with either Vehicle (30% aqueous hydroxypropyl-beta-cyclodextrin), 4-{5-[3-(4-Fluorophenyl)-3H-imidazo[4,5-c]pyridin-2-yl]pyridin-2-yl}morpholine 15, 50 and 150 mg/kg (5 mL/kg dose volume), or Pregabalin 30 mg/kg (2 mL/kg dose volume in water). Paw withdrawal thresholds (PWT) from each of the animals (mechanical von-Frey, mvF) were evaluated at 1 and 3 hours post dosing.\nStatic mechanical (tactile) allodynia: Measurement of withdrawal threshold was achieved using calibrated (force; g) von-Frey monofilaments (Touch-Test Sensory Evaluator; Scientific Marketing Associates) applied to the plantar surface of the hindpaw. Withdrawal threshold was determined by increasing and decreasing stimulus intensity, and estimated using the Dixon's up-down method (Dixon, 1980; Chaplan et al., 1994). […]\nMechanical allodynia (von Frey) data were analysed using two-way repeated measures ANOVA with ‘treatment’ as a between subjects effect and ‘day’ as a within subjects effect. […]"}, "[4]": {"settings": "oral 10 mg/kg, 1 and 4 hours post administration"}, "[5]": {"settings": "oral 1, 3 and 10 mg/kg, 24 hours post CFA, 1 and 4 hours post treatment"}}, "data": [{"smiles": "C[C@@](Cc1ccc(O)c(O)c1)(NN)C(=O)O", "note": "[(S)-Carbidopa, reference compound]", "values": [{"measurement": "inhibition of the hypersensitivity response (weight bearing)", "setting": "[1]; Part B, 3-100 mg/kg alone, 1 and 3 hours post treatment, FIG. 4", "result": "dose-dependently inhibited the hypersensitivity response"}, {"measurement": "effect on oedema (paw volume)", "setting": "[2]; rat, Part B, 3-100 mg/kg, 3 hours post treatment, FIG. 5", "result": "no effect on oedema"}]}, {"smiles": "CC(C)[C@H]1c2nc[nH]c2CCN1C(=O)O[C@H]1CCOC1.CS(=O)(=O)O", "note": "[(3S)-tetrahydrofuran-3-yl (4S)-4-isopropyl-1,4,6,7-tetrahydro-5Himidazo[4,5-c]pyridine-5-carboxylate mesylate salt]", "values": [{"measurement": "effect on paw volume", "setting": "[2]; rat, 150, 250 and 500 mg/kg p.o., 4 hours post compound administration", "result": "No effect"}]}, {"smiles": "CC(=O)N1CCN(c2ccc(-c3nc4ccncc4n3-c3ccc(F)cc3)cn2)CC1", "note": "[Compound 2, 1-(4-{5-[3-(4-Fluorophenyl)-3H-imidazo[4,5-c]pyridin-2-yl]pyridin-2-yl}piperazin-1-yl)ethan-1-one]", "values": [{"measurement": "inhibition of the hypersensitivity response (weight bearing)", "setting": "[1]; [4]", "result": "significantly inhibiting the hyperactivity response at both 1 and 4 hours post administration"}, {"measurement": "inhibition of the hypersensitivity response (weight bearing)", "setting": "[1]; [5]", "result": "dose-dependently inhibited the hypersensitivity response"}]}, {"smiles": "CC(C)[C@H]1c2nc[nH]c2CCN1C(=O)O[C@H]1CCOC1.CS(=O)(=O)O", "note": "[(3S) Tetrahydrofuran-3-yl (4S)-4-isopropyl-1,4,6,7-tetrahydro-5H-imidazo[4,5-c]pyridine-5-carboxylate mesylate salt]", "values": [{"measurement": "reversal of CFA induced hypersensitivity (weight bearing)", "setting": "[1]; 150 mg/kg p.o., 1, 2 and 4 hours post dose", "result": "no significant reversal of hypersensitivity at any time point"}, {"measurement": "reversal of CFA induced hypersensitivity (weight bearing)", "setting": "[1]; 250 mg/kg p.o., 1, 2 and 4 hours post dose", "result": "significant reversal at 4 hours"}, {"measurement": "reversal of CFA induced hypersensitivity (weight bearing)", "setting": "[1]; 500 mg/kg p.o., 1, 2 and 4 hours post dose", "result": "effective at all time points with maximum effect seen at 4 hours post dose"}]}, {"smiles": "C[C@]12C=CC(=O)C=C1CC[C@@H]1[C@@H]2[C@@H](O)C[C@@]2(C)[C@H]1CC[C@]2(O)C(=O)CO", "note": "[Prednisolone, reference compound]", "values": [{"measurement": "inhibition of the hypersensitivity response (weight bearing)", "setting": "[1]; Part A, 0.3-10 mg/kg alone, 1 and 3 hours post treatment, FIG. 3", "result": "dose-dependently inhibited the hypersensitivity response"}]}, {"smiles": "COc1ccc2c(c1)c(CC(=O)O)c(C)n2C(=O)c1ccc(Cl)cc1", "note": "[indomethacin, reference compound]", "values": [{"measurement": "reversal of CFA induced hypersensitivity (weight bearing)", "setting": "[1]; 10 mg/kg, 24 hours post CFA, reference", "result": "marked reversal of the hypersensitivity"}]}, {"smiles": "CC(C)[C@H]1c2nc[nH]c2CCN1C(=O)O[C@H]1CCOC1", "note": "[(3S)-Tetrahydrofuran-3-yl (4S)-4-isopropyl-1,4,6,7-tetrahydro-5H-imidazo[4,5-c]pyridine-5-carboxylate]", "values": [{"measurement": "efficacy in CFA hyperalgesia model (reversal of hypersensitivity)", "setting": "[1]; rat, 150, 250 and 500 mg/kg p.o., compared with indomethacin 10 mg/kg, FIG. 1", "result": "effective in a dose-dependent manner, and comparably in efficacy to the gold standard benchmark indomethacin"}]}, {"smiles": "Fc1ccc(-n2c(-c3ccc(N4CCOCC4)nc3)nc3ccncc32)cc1", "note": "[4-{5-[3-(4-Fluorophenyl)-3H-imidazo[4,5-c]pyridin-2-yl]pyridin-2-yl}morpholine]", "values": [{"measurement": "withdrawal threshold (von-Frey mechanical allodynia)", "setting": "[3]; rat CCI, 50 mg/kg p.o., vs the vehicle group", "result": "reaching statistical significance at 3 h"}, {"measurement": "withdrawal threshold (von-Frey mechanical allodynia)", "setting": "[3]; rat CCI, 150 mg/kg p.o., vs the vehicle group", "result": "reaching statistical significance vs the vehicle group at 1 h and 3 h"}, {"measurement": "withdrawal threshold (von-Frey mechanical allodynia)", "setting": "[3]; rat CCI, 15, 50 and 150 mg/kg p.o., 1 and 3 hours post dosing, FIG. 9", "result": "increased withdrawal threshold in a dose and temporally dependent fashion"}]}, {"smiles": "CC(C)C[C@H](CN)CC(=O)O", "note": "[Pregabalin, reference compound]", "values": [{"measurement": "withdrawal threshold (von-Frey mechanical allodynia)", "setting": "[3]; rat CCI, 30 mg/kg p.o., day 23 post-surgery, reference", "result": "increased the withdrawal threshold to a degree that was comparable with those animals that had undergone sham surgery"}]}, {"smiles": "CS(=O)(=O)N1CCN(c2ccc(-c3nc4ccncc4n3-c3ccc(F)cc3)cn2)CC1", "note": "[1-{5-[3-(4-Fluorophenyl)-3H-imidazo[4,5-c]pyridin-2-yl]pyridin-2-yl}-4 methanesulfonylpiperazine]", "values": [{"measurement": "inhibition of the hypersensitivity response (weight bearing)", "setting": "[1]; oral 3 mg/kg, 1 and 4 hours post administration", "result": "significant reduction at 4 hours post administration"}, {"measurement": "inhibition of the hypersensitivity response (weight bearing)", "setting": "[1]; [4]", "result": "significantly inhibiting the hyperactivity response at both 1 and 4 hours post administration"}, {"measurement": "inhibition of the hypersensitivity response (weight bearing)", "setting": "[1]; [5]", "result": "dose-dependently inhibited the hypersensitivity response"}]}]}
